Results reported in patent US20250090550A1, “INJECTABLE COMPOSITION COMPRISING CYTOLYTIC COMPOUND IN GEL, GEL-FORMING SOLUTION OR GEL-FORMING SUSPENSION FOR REDUCTION OF FAT” (GLONOVA PHARMA CO., LTD., priority 2022, published 2025).
Counter-ions that a name gives are not always drawn.

Tests used:
[1] = tested on: fat tissue; details: after injection of deoxycholic acid solution; cited from earlier work
[2] = Gel formation of mixtures added to 0.9% saline, placed at 37° C.; assay type: physicochemical
Experimental: In the following examples, DCA-Na solutions were mixed with other components to prepare an injectable composition. Unless otherwise stated, the requirements for the final concentration of DCA-Na in the obtained compositions were ≥70% of initial solutions (≥36.96 mg/mL for 5% solution, ≥7.39 mg/mL for 1% solution). The appearances after mixing DCA-Na with other components were observed after placing at 25, 37 and 42° C. for 20, 30, 45, 60 and 120 minutes. 200 μL of the mixtures were also added to 200 μL 0.9% saline respectively and their appearances were also observed after placing at 37° C. for 20, 30, 45, 60 and 120 minutes. Photos were taken and showing in the figures.

Compound: C[C@H](CCC(=O)O)[C@H]1CC[C@H]2[C@@H]3CC[C@@H]4C[C@H](O)CC[C@]4(C)[C@H]3C[C@H](O)[C@]12C [deoxycholic acid, Deoxycholic acid]
- permeation into fat tissue after injection [1]: more than 1 centimeter

Compound: CCN(CC)CC(=O)Nc1c(C)cccc1C [lidocaine HCl]
- suitable concentration of lidocaine HCl mixing with 1% DCA-Na solution ([2]; mixtures of 1% DCA-Na and LA + lidocaine HCl): around 3 mg/mL
- tolerable concentration of lidocaine HCl mixing with 5% DCA-Na solution ([2]; mixtures of 5% DCA-Na and LA in lidocaine HCl): up to 6 mg/mL
